Among the data in patent publication US11548900B2, “Oxazino-quinazoline and oxazino-quinoline type compound, preparation method and uses thereof” (BEIJING SCITECH-MQ PHARMACEUTICALS LIMITED, priority 2018, dated 2023) are IC50 values, retold here.

As usually defined, the IC50 is the point on the concentration scale where inhibition reaches its midpoint. Read a low IC50 as greater potency.

The target in one assay is EGFR kinase (Homo sapiens (Human), UniProt P00533). In words: Inhibition of EGFR kinase activity (ULight-labeled JAK-1 (Tyr1023) peptide substrate). The format is biochemical. The following applies: EGFR kinase 0.35 nM, ATP 150 μM, 2 hours. How it is done: (§1) The assay for the inhibition of EGFR and HER2 kinase activity by small molecular compounds was carried out using the method as follows:
(§2) 1) Dilution of the compounds
(§3) In a 96-well plate a, the compounds were diluted with DMSO using a 3-fold gradient dilution to form 11 concentrations, the 12th concentration is pure DMSO (as a positive control); and in a new 96-well plate b the above solutions were diluted 25 times with ultrapure water (DMSO concentration is 4%).
(§4) 2) Transferring the compounds to 384-well plate
(§5) The compound solutions diluted with ultrapure water in the 96-well plate b above was transferred to the corresponding wells of a 384-well plate in duplicate.
(§6) 3) Addition of 4×kinase solution: 2.5 μl of the above 4× kinase solution was taken using multichannel pipette and added to the corresponding reaction wells of the 384-well plate, mixed well and pre-reacted at room temperature for 5 minutes.
(§7) 4) Addition of 2×substrate/ATP mixed solution: 5 μl of the above 2×substrate/ATP mixed solution was taken using multichannel pipette and added to the corresponding reaction wells of the 384-well plate.
(§8) 5) Negative control: negative control wells were set in the 384-well plate, and 2.5 μl 4×substrate, 2.5 μl 4×enzyme solution, 2.5 μl 1×Kinase Assay Buffer and 2.5 μl ultrapure water containing 4% DMSO were added to each well.
(§9) 6) Mixed by centrifugation and kept at room temperature for 2 hours in the dark.
(§10) 7) Termination of the enzymatic reaction:
(§11) 5 μl of the above 4× stop solution was pipetted to the corresponding wells of the 384-well plate, centrifuged and mixed, and reacted at room temperature for 5 minutes.
(§12) 5 μl of the above 4× detection solution was pipetted into the corresponding wells of the 384-well plate, centrifuged and mixed, and reacted at room temperature for 1 hour.
(§13) 9) The 384-well plate was placed into a microplate reader and the signal was detected using the corresponding program.
(§14) 10) IC50 analysis: Well reading value=10000*EU665 value/EU615 value Inhibition rate=(reading value of positive control well−reading value of experimental well)/(reading value of positive control well−reading value of negative control well)*100% Corresponding IC50s can be calculated by entering the drug concentrations and the corresponding inhibition rates into GraphPad Prism 5.
Conditions of experiment for screening EGFR kinase inhibitory molecules:
The final concentration of EGFR kinase in the reaction system is 0.35 nM, and the final concentration of ATP is 150 μM, the final concentration of substrate ULight™-labeled JAK-1 (Tyr1023) Peptide is 100 nM, and the enzymatic reaction time is 2 hours.
(§15) The maximum final concentration of the compound in the reaction system is 2.5 μM, 11 concentrations were made with a 3-fold gradient dilution, and the minimal final concentration is 0.042 nM. The final concentration of DMSO is 1%.

The next assay deals with HER2 kinase (Homo sapiens (Human), UniProt P04626). In words: Inhibition of HER2 kinase activity (ULight-labeled PolyGT substrate). The format is biochemical. The following applies: HER2 kinase 10 nM, ATP 10 μM, 2 hours. How it is done:
as §1, §2, §3, §4, §5, §6, §7, §8, §9, §10, §11, §12, §13, §14
Conditions of experiment for screening HER2 kinase inhibitory molecules:
The final concentration of HER2 kinase in the reaction system is 10 nM, the final concentration of ATP is 10 μM, the final concentration of substrate ULight™-labeled PolyGT is 100 nM, and the enzymatic reaction time is 2 hours.
as §15

The subject of another assay is BT474 cells. In words: Inhibition of cell proliferation, BT474 (CCK-8, 72 h). The format is cell-based. The following applies: Homo sapiens, BT-474, 72 h incubation. How it is done:
The assay for the inhibition of cell proliferation by small molecular compounds was carried out using the method as follows:
1. 600 μL pancreatin was added to a T75 cell culture flask, which was digested in a 37° C. incubator for about 1 min before 5 mL of DMEM complete culture solution was added, blew evenly, transferred to a 15 mL centrifuge tube, and centrifuged at 1000 rpm for 4 min;
2. The supernatant was removed and 5 mL DMEM complete culture solution was added, blew evenly, and 10 μL cell suspension was taken and mixed with 10 μL 0.4% Trypan Blue, and counted using a cell counter;
3. BT474 and HCC827 cell lines were seeded in 96-well plates at a cell density of 10,000 and 3000 cells/well/80 μL, respectively, and cultured overnight. Only sterile water was added to the 36 wells on the periphery of the 96-well plate without adding cells, and only the 60 wells in the center of the 96-well plate were used for cell assays and controls;
4. Dilution of compounds: the compounds were diluted with a 3-fold dilution to make 10 concentrations in total with an initial concentration of 10 mM;
5. 20 μL of different compounds with different concentrations were added to each well, and 20 μL of complete culture solution was added to the remaining wells. The final concentration of DMSO in each well is 0.25%;
6. After 72 h of incubation, 10 μL CCK-8 reagent was added to each well, and incubated at 37° C. for 1-2 h; and the OD value was read at 450 nm;
7. Cell survival rate (%)=[(As−Ab)/(Ac−Ab)]*100%
As: Assay well (medium containing cell, CCK-8, compound)
Ac: Control well (medium containing cell, CCK-8)
Ab: Blank well (CCK-8, medium without cell and compound)
8. The value was imported into Graphpad Prism5 software for the calculation of IC50s (compound concentration at which 50% maximum survival rate is observed).

EGFR kinase, sequence (P00533 25-1210): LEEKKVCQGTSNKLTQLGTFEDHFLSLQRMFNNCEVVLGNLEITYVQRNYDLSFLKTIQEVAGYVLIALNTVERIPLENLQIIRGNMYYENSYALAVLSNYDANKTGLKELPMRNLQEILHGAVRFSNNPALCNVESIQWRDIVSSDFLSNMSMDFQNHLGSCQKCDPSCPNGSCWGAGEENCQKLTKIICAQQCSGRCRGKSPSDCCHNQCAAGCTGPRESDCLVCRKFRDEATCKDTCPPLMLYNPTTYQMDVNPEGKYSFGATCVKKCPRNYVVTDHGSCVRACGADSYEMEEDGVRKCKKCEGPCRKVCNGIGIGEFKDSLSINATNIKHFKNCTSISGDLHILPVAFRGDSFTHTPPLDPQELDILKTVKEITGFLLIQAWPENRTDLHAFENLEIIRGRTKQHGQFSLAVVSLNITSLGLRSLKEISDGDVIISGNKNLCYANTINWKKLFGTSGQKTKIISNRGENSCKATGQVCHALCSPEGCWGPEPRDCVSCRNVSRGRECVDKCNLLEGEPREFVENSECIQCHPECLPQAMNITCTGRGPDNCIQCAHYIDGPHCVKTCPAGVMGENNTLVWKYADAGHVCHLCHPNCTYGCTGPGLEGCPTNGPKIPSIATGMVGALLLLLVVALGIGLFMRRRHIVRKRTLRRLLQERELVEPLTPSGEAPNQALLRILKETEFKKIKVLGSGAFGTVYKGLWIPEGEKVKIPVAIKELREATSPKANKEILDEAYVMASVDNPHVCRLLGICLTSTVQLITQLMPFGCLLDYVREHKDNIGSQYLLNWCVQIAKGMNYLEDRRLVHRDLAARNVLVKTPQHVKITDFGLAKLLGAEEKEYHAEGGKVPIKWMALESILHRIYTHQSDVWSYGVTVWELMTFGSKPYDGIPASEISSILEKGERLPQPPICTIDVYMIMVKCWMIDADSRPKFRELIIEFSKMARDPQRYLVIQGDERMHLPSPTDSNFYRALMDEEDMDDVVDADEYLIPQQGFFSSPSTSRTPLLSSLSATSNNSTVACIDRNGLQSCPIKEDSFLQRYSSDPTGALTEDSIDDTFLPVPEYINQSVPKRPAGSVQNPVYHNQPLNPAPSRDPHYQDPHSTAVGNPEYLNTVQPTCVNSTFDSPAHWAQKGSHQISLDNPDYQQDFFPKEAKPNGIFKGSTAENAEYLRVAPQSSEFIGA
HER2 kinase, sequence (P04626 23-1255): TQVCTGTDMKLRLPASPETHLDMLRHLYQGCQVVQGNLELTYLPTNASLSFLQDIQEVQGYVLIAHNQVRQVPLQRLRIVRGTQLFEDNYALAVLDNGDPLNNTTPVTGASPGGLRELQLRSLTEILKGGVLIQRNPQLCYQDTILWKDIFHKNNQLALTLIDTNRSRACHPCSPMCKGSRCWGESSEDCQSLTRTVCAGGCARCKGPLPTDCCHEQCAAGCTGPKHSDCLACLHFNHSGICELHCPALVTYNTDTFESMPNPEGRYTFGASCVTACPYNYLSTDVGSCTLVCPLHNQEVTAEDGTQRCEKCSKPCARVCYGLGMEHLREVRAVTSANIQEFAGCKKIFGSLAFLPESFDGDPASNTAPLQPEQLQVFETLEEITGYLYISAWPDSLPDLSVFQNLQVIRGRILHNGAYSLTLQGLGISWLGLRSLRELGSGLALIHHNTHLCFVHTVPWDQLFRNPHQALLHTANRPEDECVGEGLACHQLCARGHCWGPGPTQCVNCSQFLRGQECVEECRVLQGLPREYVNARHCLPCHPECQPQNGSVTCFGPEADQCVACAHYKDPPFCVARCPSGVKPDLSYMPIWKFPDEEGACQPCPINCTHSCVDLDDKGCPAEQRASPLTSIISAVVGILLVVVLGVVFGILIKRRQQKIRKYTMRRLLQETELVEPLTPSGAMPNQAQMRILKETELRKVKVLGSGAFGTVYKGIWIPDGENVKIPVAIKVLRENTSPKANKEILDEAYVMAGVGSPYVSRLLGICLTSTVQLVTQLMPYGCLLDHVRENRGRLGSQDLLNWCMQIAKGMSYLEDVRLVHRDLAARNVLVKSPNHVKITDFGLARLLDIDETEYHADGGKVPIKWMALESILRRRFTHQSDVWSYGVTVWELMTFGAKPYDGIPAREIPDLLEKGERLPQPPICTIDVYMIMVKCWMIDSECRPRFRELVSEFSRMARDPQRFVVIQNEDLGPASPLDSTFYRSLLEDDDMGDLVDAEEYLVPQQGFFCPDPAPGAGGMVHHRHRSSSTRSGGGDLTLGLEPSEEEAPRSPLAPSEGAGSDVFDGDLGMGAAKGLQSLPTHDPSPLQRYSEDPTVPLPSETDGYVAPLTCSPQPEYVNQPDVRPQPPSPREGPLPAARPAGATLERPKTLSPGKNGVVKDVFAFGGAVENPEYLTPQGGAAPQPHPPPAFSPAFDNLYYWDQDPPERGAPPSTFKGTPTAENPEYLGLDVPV

For `C=CC(=O)N1CCOc2c1ccc1ncnc(Nc3ccc(Oc4ccccc4)cc3)c21` [Example 2, 1-(10-((4-phenoxyphenyl)amino)-2,3-dihydro-4H-[1,4]oxazino[2,3-f]quinazolin-4-yl)prop-2-en-1-one], the IC50 against EGFR kinase and against HER2 kinase was at most 50 nM in each case. Take `C=CC(=O)N1CCOc2c1ccc1ncnc(Nc3ccc(OCc4cccc(F)c4)c(Cl)c3)c21` [Example 3]: the IC50 on EGFR kinase and against HER2 kinase was at most 50 nM in each case. For the molecule `C=CC(=O)N1CCOc2c1ccc1ncnc(Nc3ccc(OCc4ccccn4)c(Cl)c3)c21` [Example 4, 1-(10-((3-chloro-4-(pyridin-2-ylmethoxy)phenyl)amino)-2,3-dihydro-4H-[1,4]oxazino[2,3-f]quinazolin-4-yl)prop-2-en-1-one], the IC50 against EGFR kinase and against HER2 kinase was at most 50 nM each time. On HER2 kinase, `C=CC(=O)N1CCOc2c1ccc1ncnc(Nc3ccc(Oc4ccccc4OCCCN(C)C)cc3)c21` [Example 31, 1-(10-((4-(2-(3-(dimethylamino)propoxy)phenoxy)phenyl)amino)-2,3-dihydro-4H-[1,4]oxazino[2,3-f]quinazolin-4-yl)prop-2-en-1-one] yielded an IC50 of 50 to 500 nM. On the same count and under the same terms, with `C=CC(=O)N1CCOc2c1ccc1ncnc(Nc3ccc(Oc4ccccc4OCCOC)cc3)c21` [Example 32, 1-(10-((4-(2-(2-methoxyethoxy)phenoxy)phenyl)amino)-2,3-dihydro-4H-[1,4]oxazino[2,3-f]quinazolin-4-yl)prop-2-en-1-one] the figure was at most 50 nM. Consider `C=CC(=O)N1CCOc2c1ccc1ncnc(Oc3ccc(Oc4ccccc4)cc3)c21` [Example 33, 1-(10-(4-phenoxyphenoxy)-2,3-dihydro-4H-[1,4]oxazino[2,3-f]quinazolin-4-yl)prop-2-en-1-one], for which the IC50 at EGFR kinase and on HER2 kinase was at most 50 nM in each case.

As for `C=CC(=O)N1CCOc2c1ccc1ncnc(Oc3ccc(OCc4ccccn4)c(Cl)c3)c21` [Example 34, 1-(10-(3-chloro-4-(pyridin-2-ylmethoxy)phenoxy)-2,3-dihydro-4H-[1,4]oxazino[2,3-f]quinazolin-4-yl)prop-2-en-1-one], the IC50 against EGFR kinase and on HER2 kinase was at most 50 nM each time. `C=CC(=O)N1CCOc2c1ccc1ncnc(Oc3ccc(Oc4ccc(Cl)cc4)cc3)c21` [Example 36, 1-(10-(4-(4-chlorophenoxy)phenoxy)-2,3-dihydro-4H-[1,4]oxazino[2,3-f]quinazolin-4-yl)prop-2-en-1-one] yielded an IC50 on HER2 kinase of at most 50 nM.

`C=CC(=O)N1CCOc2c1ccc1ncnc(Oc3ccc(Oc4cc(Cl)ccc4Cl)cc3)c21` [Example 38, 1-(10-(4-(2,5-dichlorophenoxy)phenoxy)-2,3-dihydro-4H-[1,4]oxazino[2,3-f]quinazolin-4-yl)prop-2-en-1-one] returned an IC50 at HER2 kinase of at most 50 nM. On the same count and under the same terms, with `O=C(/C=C/CN1CCCCC1)N1CCOc2c1ccc1ncnc(Nc3ccc(Oc4ccccc4)cc3F)c21` [Example 97, (E)-1-(10-((2-fluoro-4-phenoxyphenyl)amino)-2,3-dihydro-4H-[1,4]oxazino[2,3-f]quinazolin-4-yl)-4-(piperidin-1-yl)but-2-en-1-one] the figure was at most 50 nM; with `O=C(/C=C/CN1CCCCC1)N1CCOc2c1ccc1ncnc(Nc3ccc(Oc4ccccc4)c(F)c3)c21` [Example 98, (E)-1-(10-((3-fluoro-4-phenoxyphenyl)amino)-2,3-dihydro-4H-[1,4]oxazino[2,3-f]quinazolin-4-yl)-4-(piperidin-1-yl)but-2-en-1-one], at most 50 nM.

Turning to `CN1CCC[C@@H]1/C=C/C(=O)N1CCOc2c1ccc1ncnc(Nc3ccc(OCc4ccccn4)c(Cl)c3)c21` [Example 114], the IC50 against HER2 kinase and in the assay with BT474 cells was at most 50 nM throughout. Take `O=C(/C=C/CN1CCC(O)CC1)N1CCOc2c1ccc1ncnc(Nc3ccc(OCc4ccccn4)c(Cl)c3)c21` [Example 115, (E)-1-(10-((3-chloro-4-(pyridin-2-ylmethoxy)phenyl)amino)-2,3-dihydro-4H-[1,4]oxazino[2,3-f]quinazolin-4-yl)-4-(4-hydroxypiperidin-1-yl)but-2-en-1-one]: the IC50 against HER2 kinase and in the assay with BT474 cells was at most 50 nM in each case. For the molecule `O=C(/C=C/CN1CCC(CO)CC1)N1CCOc2c1ccc1ncnc(Nc3ccc(OCc4ccccn4)c(Cl)c3)c21` [Example 117, (E)-1-(10-((3-chloro-4-(pyridin-2-ylmethoxy)phenyl)amino)-2,3-dihydro-4H-[1,4]oxazino[2,3-f]quinazolin-4-yl)-4-(4-(hydroxymethyl)piperidin-1-yl)but-2-en-1-one], the half-maximal inhibitory concentration (IC50) against HER2 kinase and in the assay with BT474 cells was at most 50 nM throughout. As to `O=C(/C=C/CN1CCC(F)CC1)N1CCOc2c1ccc1ncnc(Nc3ccc(OCc4ccccn4)c(Cl)c3)c21` [Example 118, (E)-1-(10-((3-chloro-4-(pyridin-2-ylmethoxy)phenyl)amino)-2,3-dihydro-4H-[1,4]oxazino[2,3-f]quinazolin-4-yl)-4-(4-fluoropiperidin-1-yl)but-2-en-1-one], the IC50 at HER2 kinase and in the assay on BT474 cells was at most 50 nM in each case. Take `CN(C/C=C/C(=O)N1CCOc2c1ccc1ncnc(Nc3ccc(OCc4ccccn4)c(Cl)c3)c21)CCCO` [Example 120, (E)-1-(10-((3-chloro-4-(pyridin-2-ylmethoxy)phenyl)amino)-2,3-dihydro-4H-[1,4]oxazino[2,3-f]quinazolin-4-yl)-4-((3-hydroxypropyl)(methyl)amino)but-2-en-1-one]: the IC50 on HER2 kinase and in the assay on BT474 cells was at most 50 nM throughout. With `C[C@H]1CN(C)CCN1C/C=C/C(=O)N1CCOc2c1ccc1ncnc(Nc3ccc(OCc4ccccn4)c(Cl)c3)c21` [Example 121, (S,E)-1-(10-((3-chloro-4-(pyridin-2-ylmethoxy)phenyl)amino)-2,3-dihydro-4H-[1,4]oxazino[2,3-f]quinazolin-4-yl)-4-(2,4-dimethylpiperazin-1-yl)but-2-en-1-one], the IC50 at HER2 kinase and with BT474 cells was at most 50 nM in each case. For the molecule `CN(C/C=C/C(=O)N1CCOc2c1ccc1ncnc(Nc3ccc(OCc4ccccn4)c(Cl)c3)c21)CCO` [Example 122, (E)-1-(10-((3-chloro-4-(pyridin-2-ylmethoxy)phenyl)amino)-2,3-dihydro-4H-[1,4]oxazino[2,3-f]quinazolin-4-yl)-4-((2-hydroxyethyl)(methyl)amino)but-2-en-1-one], the IC50 on HER2 kinase and in the assay on BT474 cells was at most 50 nM throughout. For the molecule `C[C@@H]1CN(C)CCN1C/C=C/C(=O)N1CCOc2c1ccc1ncnc(Nc3ccc(OCc4ccccn4)c(Cl)c3)c21` [Example 123, (R,E)-1-(10-((3-chloro-4-(pyridin-2-ylmethoxy)phenyl)amino)-2,3-dihydro-4H-[1,4]oxazino[2,3-f]quinazolin-4-yl)-4-(2,4-dimethylpiperazin-1-yl)but-2-en-1-one], the IC50 against HER2 kinase and in the assay with BT474 cells was at most 50 nM in each case.
